Test results published in patent EP0006061A1, “Medicinal compound consisting of a derivative of cyclopentyl aldehyde” (INSTITUT DE RECHERCHES CHIMIQUES ET BIOLOGIQUES APPLIQUEES …, priority 1978, dated 1979).
Values after ≈ are worked out from the molar mass of the structure shown. Like-named read-outs stand apart in the source and are kept apart here.

What was measured:
duodénum isolé de rat [1] = assay: antispasmodic activity on isolated duodenum against acetylcholine; format: cell-based; conditions: against acetylcholine (0,2 µg/ml), read-out: DE-50 (the source's name)
Method: (§1) L'activité antispasmodique du produit de l'exemple 4 a été étudiée sur le duodénum isolé de rat vis à vis de l'acétvlcholine et du chlorure de baryum. Les DE-50 du produit de l'exemple 4 sont : • (i) 13 µg/ml vis à vis de l'acétycholine (0,2 µg/ml), et • (ii) 10 µg/ml vis à vis de BaCl2 (0,3 µg/ml). g/ toxicité

acute toxicity (LD50) = assay: acute toxicity (LD50); set-up: species or system souris; conditions: in vivo, mouse
Method: Les DL-50 du poids de l'exemple 4 chez la souris sont les suivantes : • DL-50 i.p. = 18 ± 3 mg/kg • DL-50 i.v. - 20 ± 3 mg/kg • DL-50 p.o. = 282 ± 3 mg/kg • DL-50 s.c. > 1000 mg/kg • DL-50 aérosol = 22 ± 3 mg/kg

[2] = test system: Streptococcus (souche 1178); assay: bacteriostatic activity (MIC); format: cell-based; conditions: read-out: CMI
Method: (§2) Les essais pharmaceutiques qui ont été mis en oeuvre avec les produits des exemples 1 et 4, ont été résumés ci-après : • 1°/ essais avec l'exemple 1 • a/ activité bactériostatique L' α-(2-formyl-3-méthyl-cyclopentyl)-acétal- déhyde inhibe les bactéries Gram (+) et Gram (-). Les CMI (concentration minimale inhibitrice) sont les suivantes : 0,75 mg/ml sur Staphylococcus aureus Londres, 1,2 mg/ml sur Escherichia coli, et 1,5 mg/ml sur Proteus • b/ activité antispasmodique : Les DE-50 du produit de l'exemple 1 ont été déterminés • (i) in vitro sur iléon isolé de cobaye vis à vis de l'histamine : DE - 50 = 50 γ/ml; • (ii) in vivo sur l'animal vivant selon la méthode de KONZETT & ROESLLER : DE - 50 = 2,6 mg/kg par administration i.v. • c/ activité antianaphylactique : Des cobayes mâles sont sensibilisés par deux injections de 0,5 ml d'une solution d'albumine à 2 g/1, à deux jours d'intervalle. Quatre semaines aprës,le choc anaphylactique mortel est provoqué par injection i.v. de 0,2 ml d'une solution aqueuse d'ovalbumine à 2 g/1. Les produits à tester sont administrés 30 mn avant (administration i.p.) ou en même temps (administration i.v.) que l'injection provoquant ledit choc anaphylactique. Les résultats sont donnés dans le tableau I pour le produit de l'exemple 1 et la Prométhazine en tant que produit de référence : [formula] • 2°/ essais avec le produit de l'exemple 4 (constitué par un mélange de 87 % en poids d'isomère "cis-trans" et 13 % en poids d'isomère "trans-cis). • a/ activité bactériostatigue : Le produit de l'exemple 4 inhibe les bactéries Gram (+) et Gram (-). Ses CMI sont les suivantes : • 1,5 mg/m sur Staphylococcus aureus, Londres • 1 mg/ml sur Escherichia coli (souche 548) • 1,75 mg/ml sur Proteus vulgaris (souche 1557) • 2,5 mg/ml sur Klebsiella pneumoniae (souche 433), • 1 mg/ml sur Salmonella typhi murium (souche IP), • 1,5 mg/ml sur Staphylococcus aureus (souche 634), • 1,25 mg/ml sur Streptococcus (souche 1178) • 1,25 mg/ml sur Bacillus substilis, (les souches 548, 1557, 433, 634, et 1178 étant celles du catalogue de la collection du "Centre International de Distribution de Souches et d'Information sur les Types Microbiens" de . Lausanne, et la souche "IP" provenant de l'Institut Pasteur de Paris. • b/ activité bactéricide Le produit de l'exemple 4 détruit les bactéries Gram (+) et Gram (-). Ses CMB (concentration minimalebactéricide) déterminées sur milieu solide (quand moins de 0,01% de germes survivent) sont : • 1,75 mg/ml sur Staphylococcus aureus Londres • 1,5 mg/ml sur Escherichia coli (souche 548) • 2 mg/ml sur Proteus vulgaris (souche 1557) • 3 mg/ml sur Klebsiella pneumoniae (souche 433), • 1,25 mg/ml sur Salmonella typhi murium (souche I.P.) • 1,75 mg/ml sur Staphylococcus aureus (souche 634) • 2 mg/ml sur Streptococcus (souche 1178) • 2,5 mg/ml sur Bacillus substilis. • c/ activité bronchospatique Des cobayes mâles ou femelles [20 animaux (pesant 300-500 g) par dose et par produit à tester] sont exposés à un aérosol de l'exemple 4 (50 g/l en solution eau-éthanol) ou de Prométhazine (produit de référence) pendant 10 mn.

[3] = test system: Klebsiella pneumoniae (souche 433); assay: bacteriostatic activity (MIC); format: cell-based; conditions: read-out: CMI
Method: as §2

Bacillus substilis [4] = assay: bacteriostatic activity (MIC); format: cell-based; conditions: read-out: CMI
Method: as §2

[5] = test system: Staphylococcus aureus (souche 634); assay: bacteriostatic activity (MIC); format: cell-based; conditions: read-out: CMI
Method: as §2

[6] = test system: Salmonella typhi murium (souche IP); assay: bacteriostatic activity (MIC); format: cell-based; conditions: Salmonella enterica, read-out: CMI
Method: as §2

[7] = test system: Escherichia coli (souche 548); assay: bacteriostatic activity (MIC); format: cell-based; conditions: read-out: CMI
Method: as §2

[8] = test system: Proteus vulgaris (souche 1557); assay: bacteriostatic activity (MIC); format: cell-based; conditions: read-out: CMI
Method: as §2

iléon isolé de cobaye = assay: antianaphylactic activity in vitro: albumin-induced contraction of ileum from sensitised animals; format: cell-based; conditions: for amplitude des contractions: 2 min contact, 200 µg albumin, controls 147 ± 32
Method: Des cobayes mâles sont sensibilises par une injection i.p. de 100 mg/kg d'ovalbumine dans un volume égal d'adjuvant de Freund. Quatre semaines après, les animaux sont sacrifiés, on recueille chaque iléon qui est placé à 33°C dans un bain de Thyrode. Une contraction est provoquée par addition d'une dose de 200 µg d'albumine au liquide de survie. L'amplitude des contractions des témoins est comparée à l'amplitude des contractions après mise en contact du produit de l'exemple 4 pendant 2 mn. Les résultats donnés dans le tableau III montrent que le produit de l'exemple 4 réduit l'amplitude des contractions de l'iléon isolé de cobaye , cette réduction étant statistiquement significative.

[9] = test system: Streptococcus (souche 1178); assay: bactericidal activity (MBC) on solid medium; format: cell-based; conditions: less than 0,01% of germs survive, read-out: CMB (concentration minimalebactéricide)
Method: as §2

[10] = test system: Staphylococcus aureus Londres; assay: bactericidal activity (MBC) on solid medium; format: cell-based; conditions: less than 0,01% of germs survive, read-out: CMB (concentration minimalebactéricide)
Method: as §2

[11] = test system: Salmonella typhi murium (souche I.P.); assay: bactericidal activity (MBC) on solid medium; format: cell-based; conditions: Salmonella enterica, less than 0,01% of germs survive, read-out: CMB (concentration minimalebactéricide)
Method: as §2

[12] = test system: Klebsiella pneumoniae (souche 433); assay: bactericidal activity (MBC) on solid medium; format: cell-based; conditions: less than 0,01% of germs survive, read-out: CMB (concentration minimalebactéricide)
Method: as §2

Bacillus substilis [13] = assay: bactericidal activity (MBC) on solid medium; format: cell-based; conditions: less than 0,01% of germs survive, read-out: CMB (concentration minimalebactéricide)
Method: as §2

[14] = test system: Staphylococcus aureus (souche 634); assay: bactericidal activity (MBC) on solid medium; format: cell-based; conditions: less than 0,01% of germs survive, read-out: CMB (concentration minimalebactéricide)
Method: as §2

[15] = test system: Escherichia coli (souche 548); assay: bactericidal activity (MBC) on solid medium; format: cell-based; conditions: less than 0,01% of germs survive, read-out: CMB (concentration minimalebactéricide)
Method: as §2

[16] = test system: Proteus vulgaris (souche 1557); assay: bactericidal activity (MBC) on solid medium; format: cell-based; conditions: less than 0,01% of germs survive, read-out: CMB (concentration minimalebactéricide)
Method: as §2

rat femelle = assay: anti-inflammatory activity, carrageenin oedema test; format: in vivo
From the text: L'activité anti-inflammatoire de l'exemple 4 a été étudiée chez le rat femelle (de poids 100 g) selon le test de l'oedème à la carragéenine.Les résultats sont donnés dans le tableau IV où l'Indométacine est utilisée comme produit de référence : […]

cobayes [17] = assay: histamine aerosol bronchospasm (time to apnoea); format: in vivo; conditions: aerosol for 10 min before histamine aerosol, controls 108 ± 18
Method: Les essais pharmaceutiques qui ont été mis en oeuvre avec les produits des exemples 1 et 4, ont été résumés ci-après : • 1°/ essais avec l'exemple 1 • a/ activité bactériostatique L' α-(2-formyl-3-méthyl-cyclopentyl)-acétal- déhyde inhibe les bactéries Gram (+) et Gram (-). Les CMI (concentration minimale inhibitrice) sont les suivantes : 0,75 mg/ml sur Staphylococcus aureus Londres, 1,2 mg/ml sur Escherichia coli, et 1,5 mg/ml sur Proteus • b/ activité antispasmodique : Les DE-50 du produit de l'exemple 1 ont été déterminés • (i) in vitro sur iléon isolé de cobaye vis à vis de l'histamine : DE - 50 = 50 γ/ml; • (ii) in vivo sur l'animal vivant selon la méthode de KONZETT & ROESLLER : DE - 50 = 2,6 mg/kg par administration i.v. • c/ activité antianaphylactique : Des cobayes mâles sont sensibilisés par deux injections de 0,5 ml d'une solution d'albumine à 2 g/1, à deux jours d'intervalle. Quatre semaines aprës,le choc anaphylactique mortel est provoqué par injection i.v. de 0,2 ml d'une solution aqueuse d'ovalbumine à 2 g/1. Les produits à tester sont administrés 30 mn avant (administration i.p.) ou en même temps (administration i.v.) que l'injection provoquant ledit choc anaphylactique. Les résultats sont donnés dans le tableau I pour le produit de l'exemple 1 et la Prométhazine en tant que produit de référence : [formula] • 2°/ essais avec le produit de l'exemple 4 (constitué par un mélange de 87 % en poids d'isomère "cis-trans" et 13 % en poids d'isomère "trans-cis). • a/ activité bactériostatigue : Le produit de l'exemple 4 inhibe les bactéries Gram (+) et Gram (-). […]

duodénum isolé de rat [18] = assay: antispasmodic activity on isolated duodenum against barium chloride; format: cell-based; conditions: against BaCl2 (0,3 µg/ml), read-out: DE-50 (the source's name)
Method: as §1

cobayes [19] = assay: antianaphylactic activity: ovalbumin aerosol in sensitised animals (time to dyspnoea); format: in vivo; conditions: aerosol pretreatment, controls 94 ± 39
From the text: Des cobayes (mâles ou femelles) sont sensibilisés à l'ovalbumine quatre semaines avant le début de l'expérience. Chaque animal est exposé à un aérosol d'ovalbumine (obtenu à partir d'un milieu aqueux contenant 50 g/1 d'ovalbumine). Le choc anaphylactique se manifeste par l'apparition d'une dyspnée intense. Les temps d'apparition de la dyspnée sont comparés entre lot témoin et lots préalablement traités avec un aérosol du produit de l'exemple 4 (50 g/1 dans une solution eau-éthanol). Les résultats donnés dans le tableau IV, montrent que le produit de l'exemple 4 […] le temps d'apparition des troubles respiratoires provoqués par l'aérosol d'ovalbumine .

C=C(C=O)C1CCC(C)C1C=O (stereo not drawn) [Ex. 4, α-(2-formyl-3-méthyl-cyclopentyl)-acrylaldéhyde]
EC50 (duodénum isolé de rat [1]): 13 µg/mL (≈ 0.0782 mM) | LD50 (acute toxicity (LD50); inhaled or intranasal, aerosol, read-out: DL-50 aérosol): 22 ± 3 mg/kg | LD50 (acute toxicity (LD50); ip, i.p., read-out: DL-50 i.p.): 18 ± 3 mg/kg | LD50 (acute toxicity (LD50); iv, i.v., read-out: DL-50 i.v.): 20 ± 3 mg/kg | LD50 (acute toxicity (LD50); po, p.o., read-out: DL-50 p.o.): 282 ± 3 mg/kg | LD50 (acute toxicity (LD50); sc, s.c., read-out: DL-50 s.c.): > 1000 mg/kg | MIC [2]: 1250 µg/mL (≈ 7.52 mM) | MIC [3]: 2500 µg/mL (≈ 15 mM) | MIC (Bacillus substilis [4]): 1250 µg/mL (≈ 7.52 mM) | MIC [5]: 1500 µg/mL (≈ 9.02 mM) | MIC [6]: 1000 µg/mL (≈ 6.02 mM) | MIC [7]: 1000 µg/mL (≈ 6.02 mM) | MIC [8]: 1750 µg/mL (≈ 10.5 mM) | amplitude des contractions (iléon isolé de cobaye; 5 µg/ml): 91 ± 37 | amplitude des contractions (iléon isolé de cobaye; 10 µg/ml): 52 ± 16 | inhibition at 5 µg/mL (iléon isolé de cobaye; Cavia porcellus, 2 min, 5 µg/ml, read-out: variation de l'amplitude par rapport aux animaux témoins): 38% | inhibition at 10 µg/mL (iléon isolé de cobaye; Cavia porcellus, 2 min, 10 µg/ml, read-out: variation de l'amplitude par rapport aux animaux témoins): 65% | MBC [9]: 2000 µg/mL (≈ 12 mM) | MBC [10]: 1750 µg/mL (≈ 10.5 mM) | MBC [11]: 1250 µg/mL (≈ 7.52 mM) | MBC [12]: 3000 µg/mL (≈ 18 mM) | MBC (Bacillus substilis [13]): 2500 µg/mL (≈ 15 mM) | MBC [14]: 1750 µg/mL (≈ 10.5 mM) | MBC [15]: 1500 µg/mL (≈ 9.02 mM) | MBC [16]: 2000 µg/mL (≈ 12 mM) | inhibition par rapport aux témoins (rat femelle; dose 10 µg per rat): 26% | inhibition par rapport aux témoins (rat femelle; dose 50 µg per rat): 25% | inhibition par rapport aux témoins (rat femelle; dose 200 µg per rat): 41% | Apparition de l'apnée (en secondes) (cobayes [17]; 1 mg/kg): 130 ± 23 secondes | Apparition de l'apnée (en secondes) (cobayes [17]; 10 mg/kg): 169 ± 32 secondes | EC50 (duodénum isolé de rat [18]): 10 µg/mL (≈ 0.0602 mM) | Dyspnée temps d'apparition (secondes) (cobayes [19]; 1 mg/kg): 120 ± 52 secondes | Dyspnée temps d'apparition (secondes) (cobayes [19]; 10 mg/kg): 130 ± 54 secondes
